US20200216439A1, “HETERO-1,5,6,7-TETRAHYDRO-4H-INDOL-4-ONES” (BAYER PHARMA AKTIENGESELLSCHAFT, priority 2015, published 2020)

Biological target: T1, catalytic domain of human Bub1 (amino acids 704-1085) (Homo sapiens, UniProt O43683)
T1 construct: catalytic domain of human Bub1 (amino acids 704-1085); His6 (N); made in house; host or cells: Hi5 insect cells
Assay: Bub1 kinase assay (TR-FRET)
Type: biochemical
Conditions: TR-FRET; ATP 10 μM, peptide substrate 1 μM; 60 min at 22° C.; average or median if tested more than once; read-out: Inhibition of Bub1 kinase IC50
Outline: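 Eleven concentrations (0.1 nM–20 μM, duplicate) fitted by 4-parameter logistic for IC50. Read-out: EDTA-stopped TR-FRET (665/620 nm) detecting anti-phosphoserine binding to biotin-peptide (1 μM). Reaction used 10 μM ATP, 60 min at 22 °C, after 15 min compound preincubation with His-tagged human Bub1 704-1085.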

T1 sequence (O43683 704-1085): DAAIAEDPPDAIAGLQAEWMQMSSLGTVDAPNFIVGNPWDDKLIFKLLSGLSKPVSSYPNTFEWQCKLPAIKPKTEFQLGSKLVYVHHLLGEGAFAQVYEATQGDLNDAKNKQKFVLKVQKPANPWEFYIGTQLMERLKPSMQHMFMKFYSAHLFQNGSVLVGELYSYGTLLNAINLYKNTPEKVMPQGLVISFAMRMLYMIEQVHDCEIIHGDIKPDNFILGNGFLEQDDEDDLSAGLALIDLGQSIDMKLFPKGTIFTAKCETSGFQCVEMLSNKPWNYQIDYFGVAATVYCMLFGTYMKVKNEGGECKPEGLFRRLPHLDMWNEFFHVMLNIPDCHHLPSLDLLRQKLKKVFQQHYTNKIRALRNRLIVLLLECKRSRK

IC50 [µM] | SMILES
0.038 | COc1ccc(C(=O)Nc2cc(-c3[nH]c4c(c3Nc3ccccc3)C(=O)CN(C(=O)OC(C)(C)C)C4)ccn2)cc1F [Example 283, tert-Butyl 2-2-[(3-fluoro-4-methoxybenzoyl)amino]pyridin-4-yl-4-oxo-3-(phenylamino)-1,4,5,7-tetrahydro-6H-pyrrolo[2,3-c]pyridine-6-carboxylate]
0.007 | CC(C)(C)OC(=O)N1CC(=O)c2c([nH]c(-c3ccnc(NC(=O)[C@@H]4C[C@H]4F)c3)c2Nc2ccccc2)C1 (relative stereo) [Example 129, tert-Butyl 3-anilino-2-[2-({[(rel-1S,2R)-2-fluorocyclopropyl]carbonyl}amino)pyridin-4-yl]-4-oxo-1,4,5,7-tetrahydro-6H-pyrrolo[2,3-c]pyridine-6-carboxylate]
2.06 | COc1ccc(C(=O)Nc2cc(-c3c(Nc4ccccc4)c4c(n3C)CNCC4=O)ccn2)cc1F [Example 287, 3-Fluoro-4-methoxy-N-4-[1-methyl-4-oxo-3-(phenylamino)-4,5,6,7-tetrahydro-1H-pyrrolo[2,3-c]pyridin-2-yl]pyridin-2-ylbenzamide]
0.035 | COc1cc(C(=O)Nc2cc(-c3[nH]c4c(c3Nc3ccccc3)C(=O)CNC4)ccn2)ccc1F [Example 257]
0.004 | O=C1CN(C(=O)N2CCCCC2)Cc2[nH]c(-c3ccncc3)c(Nc3ccccc3)c21 [Example 93, 3-(phenylamino)-6-(piperidin-1-ylcarbonyl)-2-(pyridin-4-yl)-1,5,6,7-tetrahydro-4H-pyrrolo[2,3-c]pyridin-4-one]
0.113 | COC(=O)N1CC(=O)c2c([nH]c(-c3ccnc(NC(C)=O)c3)c2Nc2ccc(C)cc2)C1 [Example 321, Methyl 2-[2-(acetylamino)pyridin-4-yl]-3-[(4-methylphenyl)amino]-4-oxo-1,4,5,7-tetrahydro-6H-pyrrolo[2,3-c]pyridine-6-carboxylate]
0.042 | O=C1COCc2[nH]c(-c3ccncc3)c(Nc3ccccc3)c21 [Example 6, 3-(phenylamino)-2-(pyridin-4-yl)-1,7-dihydropyrano[3,4-b]pyrrol-4(5H)-one]
0.171 | COc1cc(C(=O)Nc2cc(-c3[nH]c4c(c3Nc3ccccc3)C(=O)CN(C(=O)SC(C)(C)C)C4)ccn2)ccc1F [Example 306, S-tert-butyl 3-anilino-2-{2-[(4-fluoro-3-methoxybenzoyl)amino]pyridin-4-yl}-4-oxo-1,4,5,7-tetrahydro-6H-pyrrolo[2,3-c]pyridine-6-carbothioate]
0.006 | CC(=O)Nc1cc(-c2[nH]c3c(c2Nc2ccccc2)C(=O)CN(S(=O)(=O)C2CCOCC2)C3)ccn1 [Example 173, N-{4-[3-Anilino-4-oxo-6-(tetrahydro-2H-pyran-4-ylsulfonyl)-4,5,6,7-tetrahydro-1H-pyrrolo[2,3-c]pyridin-2-yl]pyridin-2-yl}acetamide]
0.031 | CS(=O)(=O)CCNC(=O)N1CC(=O)c2c([nH]c(-c3ccncc3)c2Nc2ccccc2)C1 [Example 89, N-[2-(Methylsulfonyl)ethyl]-4-oxo-3-(phenylamino)-2-(pyridin-4-yl)-1,4,5,7-tetrahydro-6H-pyrrolo[2,3-c]pyridine-6-carboxamide]
0.005 | COCCOc1cnccc1-c1[nH]c2c(c1Nc1ccccc1)C(=O)CN(S(C)(=O)=O)C2 [Example 234]
0.006 | CC(C)(O)CC(=O)N1CC(=O)c2c([nH]c(-c3ccnc(NC(=O)[C@@H]4C[C@@H]4F)c3)c2Nc2ccccc2)C1 [Example 201]
0.005 | CC(=O)Nc1cc(-c2[nH]c3c(c2Nc2ccccc2)C(=O)CN(C(=O)C(C)C(F)(F)F)C3)ccn1 (racemic) [Example 178, N-(4-{3-Anilino-4-oxo-6-[(2RS)-3,3,3-trifluoro-2-methylpropanoyl]-4,5,6,7-tetrahydro-1H-pyrrolo[2,3-c]pyridin-2-yl}pyridin-2-yl)acetamide]
8.21 | O=C1COCc2[nH]c(-c3ccncc3C(F)(F)F)c(Nc3ccccc3)c21 [Example 300, 3-(Phenylamino)-2-[3-(trifluoromethyl)pyridin-4-yl]-1,7-dihydropyrano[3,4-b]pyrrol-4(5H)-one]
0.065 | CC(C)S(=O)(=O)N1CC(=O)c2c([nH]c(-c3ccncc3OCC(F)(F)F)c2Nc2ccccc2)C1 [Example 247, 3-(Phenylamino)-6-(propan-2-ylsulfonyl)-2-[3-(2,2,2-trifluoroethoxy)pyridin-4-yl]-1,5,6,7-tetrahydro-4H-pyrrolo[2,3-c]pyridin-4-one]
0.138 | COc1cnccc1-c1[nH]c2c(c1Nc1ccccc1)C(=O)CNC2 [Example 103, 2-(3-Methoxypyridin-4-yl)-3-(phenylamino)-1,5,6,7-tetrahydro-4H-pyrrolo[2,3-c]pyridin-4-one]
0.003 | CC(=O)Nc1cc(-c2[nH]c3c(c2Nc2ccccc2)C(=O)CN(C(=O)N(C)C(C)C)C3)ccn1 [Example 186, 2-(2-Acetamidopyridin-4-yl)-3-anilino-N-isopropyl-N-methyl-4-oxo-1,4,5,7-tetrahydro-6H-pyrrolo[2,3-c]pyridine-6-carboxamide]
0.081 | COc1cnccc1-c1[nH]c2c(c1Nc1ccccc1)C(=O)CSC2 [Example 39, 2-(3-Methoxypyridin-4-yl)-3-(phenylamino)-1,7-dihydrothiopyrano[3,4-b]pyrrol-4(5H)-one]
0.01 | CC(C)(C)OC(=O)N1CC(=O)c2c([nH]c(-c3ccnc(NC(=O)C4CC4(F)F)c3)c2Nc2ccccc2)C1 (racemic) [Example 121, tert-Butyl 2-[2-({[(1RS)-2,2-difluorocyclopropyl]carbonyl}amino)pyridin-4-yl]-4-oxo-3-(phenylamino)-1,4,5,7-tetrahydro-6H-pyrrolo[2,3-c]pyridine-6-carboxylate]
0.149 | CC(=O)Nc1cc(-c2[nH]c3c(c2Nc2ccccc2)C(=O)CN(C(=O)c2cn(C)cn2)C3)ccn1 [Example 118, N-(4-{6-[(1-Methyl-1H-imidazol-4-yl)carbonyl]-4-oxo-3-(phenylamino)-4,5,6,7-tetrahydro-1H-pyrrolo[2,3-c]pyridin-2-yl}pyridin-2-yl)acetamide]
0.009 | COCCOc1cnccc1-c1[nH]c2c(c1Nc1ccccc1)C(=O)CN(C(=O)OC(C)(C)C)C2 [Example 222, tert-Butyl 3-anilino-2-[3-(2-methoxyethoxy)pyridin-4-yl]-4-oxo-1,4,5,7-tetrahydro-6H-pyrrolo[2,3-c]pyridine-6-carboxylate]
0.006 | COc1ccc(C(=O)Nc2cc(-c3[nH]c4c(c3Nc3ccccc3)C(=O)CN(C(=O)N3CCOCC3)C4)ccn2)cc1F [Example 291, 3-Fluoro-4-methoxy-N-4-[6-(morpholin-4-ylcarbonyl)-4-oxo-3-(phenylamino)-4,5,6,7-tetrahydro-1H-pyrrolo[2,3-c]pyridin-2-yl]pyridin-2-ylbenzamide]
0.007 | CC(=O)Nc1cc(-c2[nH]c3c(c2Nc2ccccc2)C(=O)CN(C(=O)C2CC2)C3)ccn1 [Example 30, N-{4-[6-(Cyclopropylcarbonyl)-4-oxo-3-(phenylamino)-4,5,6,7-tetrahydro-1H-pyrrolo[2,3-c]pyridin-2-yl]pyridin-2-yl}acetamide]
0.007 | CC(C)(C)OC(=O)N1CC(=O)c2c([nH]c(-c3ccnc(NC(=O)[C@@H]4C[C@@H]4F)c3)c2Nc2ccccc2)C1 [Example 196, tert-Butyl 3-anilino-2-[2-({[(1S,2S)-2-fluorocyclopropyl]carbonyl}amino)pyridin-4-yl]-4-oxo-1,4,5,7-tetrahydro-6H-pyrrolo[2,3-c]pyridine-6-carboxylate]
0.007 | COc1cnccc1-c1[nH]c2c(c1Nc1ccccc1)C(=O)CN(S(=O)(=O)CCC(F)(F)F)C2 [Example 111, 2-(3-Methoxypyridin-4-yl)-3-(phenylamino)-6-[(3,3,3-trifluoropropyl)sulfonyl]-1,5,6,7-tetrahydro-4H-pyrrolo[2,3-c]pyridin-4-one]
